Values of other authors as cited in patent US7700612B2, “Di-ester prodrugs of camptothecin, process for their preparation and their therapeutical applications” (Abraxis BioScience, LLC, priority 2003, dated 2010).

What was measured:
[1] = animal models; J. Med. Chem. 23, 554 (1980)
[2] = tested on: mouse leukemia L 1210; details: initial test, Wall et al.

Row | SMILES | potency relative to the parent camptothecin [1] | solubility in water | activity against mouse leukemia L 1210 system [2]
1 | CC[C@@](O)(C(=O)[O-])c1cc2n(c(=O)c1CO)Cc1cc3ccccc3nc1-2.[Na+] [CPT sodium carboxylate] | 10-20% | water-soluble | –
2 | CC[C@@]1(O)C(=O)OCc2c1cc1n(c2=O)Cc2cc3ccccc3nc2-1 [Camptothecin] | – | insoluble | active
